Reference: patent publication US9133204B2, “5-membered heterocyclic amides and related compounds” (H. Lundbeck A/S, priority 2007, dated 2015)

Target: T1, P2X7 receptor (Homo sapiens, UniProt Q99572)
T1 construct: host or cells: SH-SY5Y
T1 sequence (Q99572 1-595): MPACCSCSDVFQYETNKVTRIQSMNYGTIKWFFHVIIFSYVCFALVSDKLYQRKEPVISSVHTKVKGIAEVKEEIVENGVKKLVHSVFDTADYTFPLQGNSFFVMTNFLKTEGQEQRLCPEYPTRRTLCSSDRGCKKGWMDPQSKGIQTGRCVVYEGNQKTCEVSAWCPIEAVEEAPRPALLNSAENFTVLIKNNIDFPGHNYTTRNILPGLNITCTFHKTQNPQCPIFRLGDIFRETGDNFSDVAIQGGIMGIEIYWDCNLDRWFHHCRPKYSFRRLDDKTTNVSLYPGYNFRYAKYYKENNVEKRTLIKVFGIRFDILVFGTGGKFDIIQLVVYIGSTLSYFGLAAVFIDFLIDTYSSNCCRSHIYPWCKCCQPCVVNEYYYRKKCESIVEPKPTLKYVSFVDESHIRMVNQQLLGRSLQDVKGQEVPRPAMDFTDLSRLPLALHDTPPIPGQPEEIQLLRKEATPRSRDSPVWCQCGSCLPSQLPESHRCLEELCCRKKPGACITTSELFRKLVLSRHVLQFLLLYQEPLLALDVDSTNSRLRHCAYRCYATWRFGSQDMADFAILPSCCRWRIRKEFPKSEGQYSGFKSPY
Assay: High throughput P2X7 calcium mobilization assay (Example 4A)
Format: cell-based
Details: SH-SY5Y cells; 50% decrease in fluorescence response of cells exposed to 80 μM BzATP; Table I
Protocol: A. High Throughput Assay of P2X7 Receptors
SH-SY5Y cells, ATCC Number CRL-2266, (American Type Culture Collection, Manassas, Va.) are cultured under DMEM/High medium supplemented with 10% FBS, and 10 mM HEPES (Invitrogen Corp., Carlsbad, Calif.) in 5% CO2 and at 37° C. One day prior to the experiment, cells are plated at a density of 100,000 cells/well in a 96 well black/clear TC plate (Corning® Costar®, Sigma-Aldrich Co., St. Louis, Mo.). At the beginning of the experiment, the culture medium is removed and cells are incubated with 50 μL of 2.3 μM Fluo-4 AM dye (Invitrogen Corp.) in the assay solution (5 mM KCl, 9.6 mM NaH2PO4.H2O, 25 mM HEPES, 280 mM sucrose, 5 mM glucose, and 0.5 mM CaCl2; pH is adjusted to 7.4 with NaOH) for an hour at 37° C. After one hour dye incubation, wells are rinsed once with 50 μL assay solution, and are then incubated for an hour at room temperature with 100 μL assay solution containing the test compound. The final concentration of test compound generally ranges from 1 to 2500 nM; for positive control cells, no test compound is added. After the one hour incubation, plates are transferred to a FLIPR^TETRA instrument (Molecular Devices, Sunnyvale, Calif.) for calcium mobilization analysis.
For determination of antagonist activity, 50 μL, of P2X7 agonist (2′(3)-O-(4-benzoyl-benzoyl)adenosine 5′-triphosephate (BzATP; Sigma-Aldrich) in the assay solution is transferred using the FLIPR into the plate, such that the final agonist concentration is 80 μM (about EC50). In negative control cells, 50 μL of assay solution without agonist is added at this stage. The peak fluorescence signal over a 2 minute period is then measured.
First, the average maximum relative fluorescent unit (RFU) response from the negative control wells (no agonist) is subtracted from the maximum response detected for each of the other experimental wells. Second, average maximum RFU response is calculated for the positive control wells (agonist wells).

IC50, ≤ 2000 nM:
CCCc1ccc(C(=O)NCC23CC4CC(CC(C4)C2)C3)s1 [Compound 78, N-(1-adamantylmethyl)-5-propylthiophene-2-carboxamide]
Cn1nc(C(F)(F)F)cc1-c1ccc(C(=O)NCC23CC4CC(CC(C4)C2)C3)s1 [Compound 80, N-(1-adamantylmethyl)-5-[1-methyl-3-(trifluoromethyl)-1H-pyrazol-5-yl]thiophene-2-carboxamide]
Cn1nc(C(F)(F)F)cc1-c1ccc(C(=O)NCCC23CC4CC(CC(C4)C2)C3)s1 [Compound 85, N-[2-(1-adamantyl)ethyl]-5-[1-methyl-3-(trifluoromethyl)-1H-pyrazol-5-yl]thiophene-2-carboxamide]
Cc1csc(C(=O)NCC23CC4CC(CC(C4)C2)C3)c1Cl [Compound 87, N-(adamantan-1-ylmethyl)-3-chloro-4-methylthiophene-2-carboxamide]
Cc1cnc(-n2cc(C(=O)NCC34CC5CC(CC(C5)C3)C4)c(C)n2)nc1Br [Compound 91, N-(adamantan-1-ylmethyl)-1-(4-bromo-5-methylpyrimidin-2-yl)-3-methyl-1H-pyrazole-4-carboxamide]
CNc1nc(-n2cc(C(=O)NCC34CC5CC(CC(C5)C3)C4)c(C)n2)ncc1C [Compound 92, N-(adamantan-1-ylmethyl)-3-methyl-1-[5-methyl-4-(methylamino)pyrimidin-2-yl]-1H-pyrazole-4-carboxamide]
Cc1cnc(-n2cc(C(=O)NCC34CC5CC(CC(C5)C3)C4)c(C)n2)nc1-c1ccccc1 [Compound 93, N-(adamantan-1-ylmethyl)-3-methyl-1-(5-methyl-4-phenylpyrimidin-2-yl)-1H-pyrazole-4-carboxamide]
Cc1cnc(-n2cc(C(=O)NCC34CC5CC(CC(C5)C3)C4)c(C)n2)nc1 [Compound 94, N-(adamantan-1-ylmethyl)-3-methyl-1-(5-methylpyrimidin-2-yl)-1H-pyrazole-4-carboxamide]
Cc1cnc(-n2cc(C(=O)NCC34CC5CC(CC(C5)C3)C4)c(C)n2)nc1-c1cccnc1 [Compound 95, N-(adamantan-1-ylmethyl)-3-methyl-1-(5-methyl-4-pyridin-3-ylpyrimidin-2-yl)-1H-pyrazole-4-carboxamide]
Cc1cnc(-n2cc(C(=O)NCC34CC5CC(CC(C5)C3)C4)c(C)n2)nc1C(N)=O [Compound 96, 2-{4-[(adamantan-1-ylmethyl)carbamoyl]-3-methyl-1H-pyrazol-1-yl}-5-methylpyrimidine-4-carboxamide]
Cc1ccc(-n2cc(C(=O)NCC34CC5CC(CC(C5)C3)C4)c(C)n2)nc1 [Compound 97, N-(adamantan-1-ylmethyl)-3-methyl-1-(5-methylpyridin-2-yl)-1H-pyrazole-4-carboxamide]
Cc1nn(-c2ccccn2)cc1C(=O)NCC12CC3CC(CC(C3)C1)C2 [Compound 98]
Cc1nn(-c2nccc(N)n2)cc1C(=O)NCC12CC3CC(CC(C3)C1)C2 [Compound 99, N-(adamantan-1-ylmethyl)-1-(4-aminopyrimidin-2-yl)-3-methyl-1H-pyrazole-4-carboxamide]
Cc1cnc(-n2cc(C(=O)NCC34CC5CC(CC(C5)C3)C4)c(C(C)C)n2)nc1N [Compound 100, N-(adamantan-1-ylmethyl)-1-(4-amino-5-methylpyrimidin-2-yl)-3-isopropyl-1H-pyrazole-4-carboxamide]
Cc1nn(-c2ccncc2)cc1C(=O)NCC12CC3CC(CC(C3)C1)C2 [Compound 101, N-(adamantan-1-ylmethyl)-3-methyl-1-pyridin-4-yl-1H-pyrazole-4-carboxamide]
CCc1cnc(-n2cc(C(=O)NCC34CC5CC(CC(C5)C3)C4)c(C)n2)nc1 [Compound 102, N-(adamantan-1-ylmethyl)-1-(5-ethylpyrimidin-2-yl)-3-methyl-1H-pyrazole-4-carboxamide]
C=Cc1nc(-n2cc(C(=O)NCC34CC5CC(CC(C5)C3)C4)c(C)n2)ncc1C [Compound 103, N-(adamantan-1-ylmethyl)-3-methyl-1-(5-methyl-4-vinylpyrimidin-2-yl)-1H-pyrazole-4-carboxamide]
Cc1cnc(-n2cc(C(=O)NCC34CC5CC(CC(C5)C3)C4)c(C)n2)nc1C(=O)N1CCCC1 [Compound 104, N-(adamantan-1 ylmethyl)-3-methyl-1-[5-methyl-4-(pyrrolidin-1-ylcarbonyl)pyrimidin-2-yl]-1H-pyrazole-4-carboxamide]
Cc1cnc(-n2cc(C(=O)NCC34CC5CC(CC(C5)C3)C4)c(C)n2)nc1C(=O)N1CCC[C@@H](N)C1 [Compound 105, N-(adamantan-1-ylmethyl)-1-(4-{[(3R)-3-aminopiperidin-1-yl]carbonyl}-5-methylpyrimidin-2-yl)-3-methyl-1H-pyrazole-4-carboxamide]
CCc1nc(-n2cc(C(=O)NCC34CC5CC(CC(C5)C3)C4)c(C)n2)ncc1C [Compound 106, N-(adamantan-1-ylmethyl)-1-(4-ethyl-5-methylpyrimidin-2-yl)-3-methyl-1H-pyrazole-4-carboxamide]
CCNC(=O)c1nc(-n2cc(C(=O)NCC34CC5CC(CC(C5)C3)C4)c(C)n2)ncc1C [Compound 107, 2-{4-[(adamantan-1-ylmethyl)carbamoyl]-3-methyl-1H-pyrazol-1-yl]-N-ethyl-5-methylpyrimidine-4-carboxamide]
CCCNC(=O)c1nc(-n2cc(C(=O)NCC34CC5CC(CC(C5)C3)C4)c(C)n2)ncc1C [Compound 108, 2-{4-[(adamantan-1-ylmethyl)carbamoyl]-3-methyl-1H-pyrazol-1-yl}-5-methyl-N-propylpyrimidine-4-carboxamide]
Cc1cnc(-n2cc(C(=O)NCC(CC(C)C)c3ccc(Cl)cc3)c(C)n2)nc1N (centres unmarked) [Compound 109, 1-(4-amino-5-methylpyrimidin-2-yl)-N-[2-(4-chlorophenyl)-4-methylpentyl]-3-methyl-1H-pyrazole-4-carboxamide]
Cc1nn(-c2ncc(F)c(N)n2)cc1C(=O)NCC12CC3CC(CC(C3)C1)C2 [Compound 110, N-(adamantan-1-ylmethyl)-1-(4-amino-5-fluoropyrimidin-2-yl)-3-methyl-1H-pyrazole-4-carboxamide]
Cc1nn(-c2nccc(C(F)(F)F)n2)cc1C(=O)NCC12CC3CC(CC(C3)C1)C2 [Compound 111, N-(adamantan-1-ylmethyl)-3-methyl-1-[4-(trifluoromethyl)pyrimidin-2-yl]-1H-pyrazole-4-carboxamide]
Cc1nn(-c2ncc(F)cn2)cc1C(=O)NCC12CC3CC(CC(C3)C1)C2 [Compound 112, N-(adamantan-1-ylmethyl)-1-(5-fluoropyrimidin-2-yl)-3-methyl-1H-pyrazole-4-carboxamide]
Cc1nn(-c2ncc(F)c(N)n2)cc1C(=O)NCC(CC(C)C)c1ccc(Cl)cc1 (centres unmarked) [Compound 113, 1-(4-amino-5-fluoropyrimidin-2-yl)-N-[2-(4-chlorophenyl)-4-methylpentyl]-3-methyl-1H-pyrazole-4-carboxamide]
Cc1nn(-c2ncc(F)cn2)cc1C(=O)NCC(CC(C)C)c1ccc(Cl)cc1 (centres unmarked) [Compound 114, N-[2-(4-chlorophenyl)-4-methylpentyl]-1-(5-fluoropyrimidin-2-yl)-3-methyl-1H-pyrazole-4-carboxamide]
Cc1cnc(-n2cc(C(=O)NCC(CC(C)C)c3ccc(C(F)(F)F)cc3)c(C)n2)nc1N (centres unmarked) [Compound 115, 1-(4-amino-5-methylpyrimidin-2-yl)-3-methyl-N-{4-methyl-2-[4-(trifluoromethyl)phenyl]pentyl}-1H-pyrazole-4-carboxamide]
